Measured values published in patent US20040141912A1, “Method for targeting chemical compounds to cells and pharmaceutical compositions used therein” (priority 2001, published 2004).
Entries after “also recorded” stand apart in the source; their conditions may differ.

How the values were obtained:
Type in all cases: cell-based, human
Jurkat cells [1] = experiment: FACS analysis of DDC uptake by Jurkat cells induced to undergo apoptosis by anti-Fas antibody (PI co-staining)
Experimental: FIG. 3: Cultured Jurkat cells (A) were induced to undergo apoptosis by anti-Fas antibody (0.1 μg/ml) for three hours. Subsequently, both control cells (A and C) and apoptotic cells (B and D) were then incubated with 50 μM of DDC in the presence (C and D) and absence (A and B) of 1 μM of rottlerin, an inhibitor of PKCδ. Prior to FACS analysis, cells were also co-stained with propidium iodide (PI), a marker of membrane disintegration during late phases of cell death. In the shown dot plot, the left lower quadrant represents the healthy, non-stained fraction of cells. The right lower quadrant represents the newly formed population of cells in the early stages of apoptosis. These cells are PLS-activated cells, yet still maintaining membrane integrity and thus excluding PI. Cells binding both DDC and PI, i.e., cells in the late stages of apoptosis are represented in the right upper quadrant. The induction of apoptosis was associated with the emergence of a marked, distinct population of cells in the early stages of the apoptotic process, selectively binding DDC and occupying the right lower quadrant of the plot. […] UV axis denotes fluorescence intensity of DDC; FL2 axis denotes fluorescence intensity of PI.
FIG. 4: Jurkat cells were induced to undergo apoptosis by treatment with anti-Fas Ab (0.1 μg/ml) for three hours. Subsequently, cells were co-incubated with 50 μM of DDC and PI, in the presence of 1 mM of CaCl2, or under conditions of calcium deprivation (i.e., co-administration of the calcium chelators BAPTA and EGTA). Binding of DDC and PI was evaluated by FACS.
FIG. 4A: A and C: control cells; B and D: apoptotic cells; A and B: with Ca^2+; C and D: deprivation of Ca^2+. The lower left quadrant in each dot plot represents the healthy non-stained fraction of cells. The lower right quadrant represents the newly formed population of cells in the early stages of apoptosis, characterized by activation of PLS, but still maintaining membrane integrity. […] However, DDC binding to the cells in early apoptosis was markedly lost upon inhibition of PLS by calcium deprivation (B versus D).
Cultured Jurkat cells were grown as described in Example 1, and apoptosis was then triggered by treatment with anti-Fas Ab (0.1 μg/ml) for three hours, thus inducing […] activation in these cells.
In order to inhibit PLS activity in the apoptotic cells, rottlerin was used (Calbiochem, Germany). […] Subsequent to induction of apoptosis, cells were incubated for 40 minutes with rottlerin, at a concentration of 1 μM, were then subjected to treatment with DDC at a concentration of […] and immediately taken for FACS analysis (FIG. 3).
Inhibition of PLS activity in the apoptotic cells was also achieved by reduction of ambient Ca^2+ levels. Following induction of apoptosis, both control and apoptotic cells (1×10^7 cells) were subjected to Ca^2+-deprivation, by co-treatment with BAPTA (20 μM) and EGTA (1 mM) for 30 minutes. Cells were then treated with DDC (250 μM) and propidium iodide (PI). Binding of DDC to these Ca^2+-deprived cells and to control, Ca^2+-treated (1 mM) cells was analyzed by FACS, and the dot plot is shown in FIG. 4A. The lower left quadrant in each dot plot represents the healthy fraction of cells. The lower right quadrant represents the newly-formed population of cells in the early stages of apoptosis, still maintaining membrane integrity but characterized by activation of PLS. As shown, these cells manifest DDC binding while excluding PI. The upper right quadrant represents cells in the late stages of apoptosis, characterized by disintegration of the plasma membrane, thus unselectively permeable to compounds including PI, that is normally excluded from healthy cells.
Induction of apoptosis is a major pathway for the activation of PLS. […] For this purpose, apoptosis was triggered in cultured Jurkat cells by treatment with anti-Fas antibody. […]

[2] = FACS analysis of DDC uptake by control and activated platelets; conditions: DDC 5 μM, 5 min
Experimental: FIG. 6: Control and activated platelets were co-incubated with DDC (at a final concentration of 5 μM under three different conditions: no further treatment; Ca^2+-deprivation due to incubation with BAPTA and EGTA; and restoration of Ca^2+ following re-addition of Ca^2+ and calcium-ionophore A23187. Platelets were then subjected to FACS analysis.
The selective binding of DDC to activated platelets was determined using flow cytometric (FACS) analysis. Platelet rich plasma was obtained from healthy volunteers. 10^9 fresh platelets were centrifuged (5 minutes, 380×g), washed and re-suspended in Tyrode's buffer (137 mM NaCl; 2.8 mM KCl; 1 mM MgCl2, 12 mM NaHCO3; 0.4 mM Na2HPO4; 5.5 mM D-glucose and 10 mM Hepes pH 7.4; 0.35% BSA). Control platelets were kept on ice.
For activation, 200 μl of washed platelets were incubated with the calcium ionophore A23187 in the presence of 5 mM of CaCl2, at room temperature. Following incubation, platelets were centrifuged (2 min., 10^4 rpm) and re-suspended in 1 ml of Tyrode's buffer. Activated platelets were subsequently incubated with 5 μM of DDC for 5 minutes at room temperature, under three different conditions: (i). without any further treatment; (ii). under conditions of Ca^2+-deprivation, induced by 20 μM of BAPTA and 1 mM of EGTA (for 30 min. at 4° C.); (iii). upon restoration of Ca^2+, wherein platelet intracellular Ca^2+ levels were replenished by addition of 1 mM of CaCl2 and 2 μM of the calcium ionophore A23187. Non-activated platelets served as control. Platelets were subjected to flow cytometric (FACS) analysis using Becton-Dickinson cell sorter and CellQuest software. Excitation was at 360 nm and emission was measured at 530 nm.

Jurkat cells [3] = experiment: FACS analysis of DDC uptake by Jurkat cells induced to undergo apoptosis by staurosporine
Experimental: FIG. 8: Jurkat cells were induced to undergo apoptosis by treatment with staurosporine. Subsequently, these cells were treated with DDC. The relative change in DDC uptake by cells in early versus late stages of apoptosis, following induction and inhibition of the PLS system is presented. Shown are the percents of positive early or late apoptotic events (mean values), calculated from 3 independent experiments, and wherein the events (either early or late) observed in apoptotic culture are regarded as 100%. Selective accumulation of DDC in early, but not in late apoptotic cells was detected as a result of staurosporine treatment. Ca^2+-deprivation or rottlerin treatment were performed as described in FIG. 1.
The selective uptake of DDC by apoptotic cells is not dependent upon the type of apoptotic trigger. […] Staurosporine acts in an apoptotic pathway which is largely distinct from that of anti-Fas Ab. Jurkat cells were grown as described in Example 1, and were subsequently treated for 4 hours with 1 μM of staurosporine (S4400; Sigma, USA). After induction of apoptosis, cells were treated with DDC (250 μM) for 5 minutes, and were then co-stained with PI and subjected to FACS analysis. Non-treated cells served as control.

SMILES: CN(C)c1cccc2c(S(=O)(=O)NC(CSSCC(NS(=O)(=O)c3cccc4c(N(C)C)cccc34)C(=O)O)C(=O)O)cccc12 (stereo not drawn) [DDC]
- Binding of DDC to cells in the late stages of apoptosis upon calcium deprivation (Jurkat cells [1]; PI-permeable cells, BAPTA + EGTA): no effect of PLS inhibition; also recorded: did not affect binding of DDC
- Cells in the early stages of apoptosis binding DDC (right lower quadrant) (Jurkat cells [1]; apoptotic cells (anti-Fas 0.1 μg/ml 3 h), absence of rottlerin): 46%
- Uptake of DDC by cells in the early stages of apoptosis (Jurkat cells [1]; apoptotic cells (anti-Fas), with Ca2+ 1 mM): 38.4%
- Uptake of DDC by cells in the early stages of apoptosis (Jurkat cells [1]; apoptotic cells, Ca2+-deprivation: BAPTA 20 μM + EGTA 1 mM, 30 min): 8.89%
- Cells in the early stages of apoptosis binding DDC (right lower quadrant) (Jurkat cells [1]; apoptotic cells, rottlerin 1 μM (PKCδ inhibitor), 40 min): 7.9%
- Uptake of DDC (early-apoptosis quadrant) (Jurkat cells [1]; control cells, with Ca2+ 1 mM): 4.11%
- DDC binding to cells in the late stages of apoptosis in response to rottlerin (Jurkat cells [1]; right upper quadrant (DDC and PI positive), rottlerin 1 μM): did not manifest alterations in DDC binding
- DDC uptake (fluorescence intensity), control non-activated platelets [2]: low levels of fluorescence intensity; also recorded: only minimal uptake of DDC
- Positive early apoptotic events for DDC (apoptotic culture regarded as 100%) (Jurkat cells [3]; control non-treated cells, mean of 3 experiments, DDC 250 μM 5 min): 36%
- Positive early apoptotic events for DDC (apoptotic culture regarded as 100%) (Jurkat cells [3]; staurosporine 1 μM 4 h apoptotic cells): 100%
- Positive early apoptotic events for DDC (apoptotic culture regarded as 100%) (Jurkat cells [3]; staurosporine-treated cells, Ca2+-deprivation): 14%
- Positive early apoptotic events for DDC (apoptotic culture regarded as 100%) (Jurkat cells [3]; staurosporine-treated cells, rottlerin treatment): 30%
